# Values joined by “and” are separate entries in the source; they are usually repeats but may differ in a detail not shown here. Equal values may be shown once.
# Experiments:
# [1] = target: BoNT/A LC (Clostridium botulinum, UniProt P0DPI0); assay type: biochemical
# [2] = tested on: BoNT/A-mediated cleavage of SNAP-25 in hiPSC-derived neurons; assay type: cell-based, human; conditions: for EC50: read-out: EC50, protection of BoNT/A-intoxicated neurons (SNAP-25 cleavage)
# [3] = mouse, in vivo, sc, 1 mg/kg
# [4] = tested on: BoNT/A; conditions: mouse
# Chain of BoNT/A LC (P0DPI0 2-448 limits assumed): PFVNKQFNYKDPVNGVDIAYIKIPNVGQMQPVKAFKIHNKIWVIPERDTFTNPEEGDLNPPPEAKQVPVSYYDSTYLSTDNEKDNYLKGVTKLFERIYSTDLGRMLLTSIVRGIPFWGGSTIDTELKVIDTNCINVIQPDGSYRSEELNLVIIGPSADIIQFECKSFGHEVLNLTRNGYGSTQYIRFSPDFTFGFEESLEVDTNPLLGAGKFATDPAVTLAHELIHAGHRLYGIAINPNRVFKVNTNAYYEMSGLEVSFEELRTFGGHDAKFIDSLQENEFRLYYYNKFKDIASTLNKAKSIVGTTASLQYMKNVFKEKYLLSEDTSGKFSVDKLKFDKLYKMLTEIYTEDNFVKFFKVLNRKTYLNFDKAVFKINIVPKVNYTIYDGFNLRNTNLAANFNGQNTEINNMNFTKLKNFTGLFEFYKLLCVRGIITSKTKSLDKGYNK
molecule,measurement,setting,value
"O=C1O[C@H]([C@@H](O)CO)C([O-])=C1O.[Na+] [ASC, Sodium ascorbate, reference compound]",effect on enzyme activity,[1],no effect
"COCCN(CCOC)C(=S)[S-].COCCN(CCOC)C(=S)[S-].[Cu+2] [Cu(MEDTC)2, copper (II) bis(2-methoxyethyl)dithiocarbamate]",effect on SNAP-25 cleavage,[2],able to mitigate SNAP-25 cleavage
same,EC50,[2],~1 µM
same,survival of mice treated with complex only without toxin,[3],complete survival
same,in vivo efficacy against BoNT/A,[4],efficacy against BoNT/A was established
same,time to death,[4]; in vivo,significant increase
"CNC(=S)NN=CC=NNC(=S)NC.[Cu+2] [Cu(GTSM), copper (II) glyoxal-bis(4-methylthiosemicarbazone)]",delay between +complex and control curves of SNAP-25 cleavage versus time,[2],less than half hour delay
same,"effect of additives NAC, ASC or BSO on complex inhibition of BoNT/A",[2],no observable effect
same,effect on SNAP-25 cleavage,[2],able to mitigate SNAP-25 cleavage
same,EC50,[2],~1 µM
same,survival of mice treated with complex only without toxin,[3],complete survival
same,in vivo efficacy against BoNT/A,[4],efficacy against BoNT/A was established
same,efficacy after BoNT/A challenge,[4]; in vivo,statistically significant efficacy was not achieved
same,time to death,[4]; in vivo,significant increase
same,time to death post-toxin exposure,"[4]; in vivo, sc",marked increase
CuCl2 [Cu (II)],Ki,[1],1.56 µM and ~1 µM
same,enzyme activity,[1],< 1%
same,inhibition mechanism,[1],noncompetitive inhibition
same,inhibitory activity in metal salt screen,[1],significant inhibitory activity
same,reversibility of inhibitory effect on Vmax,[1],reversible
"Oc1c(Cl)cc(Cl)c2cccnc12 [DCOQ, 5,7-dichloroquinolin-8-ol]",result in cell-based BoNT/A assay,[2],promising results
"c1ccc(-c2ccccn2)nc1 [BIPY, 2,2′-bipyridine]",result in cell-based BoNT/A assay,[2],promising results

# — PMC5612488 (Journal of the American Chemical Society, 2017)
